Experiments:
Saccharomyces cerevisiae [1] = assay: traditional plate-based yeast DEL assay (DNA deletions); assay type: cell-based; conditions: 1.4 mM; background about 20 DEL events per 100,000 cells
Description: In one embodiment, yeast cells (Saccharomyces cerevisiae) having a disruption of the his gene as the DEL selection marker are treated with test agents in 25 ml tubes and then plated for about 48 h at 30° C. Following treatment the cells are washed, for example, with PBS, and sonicated to assure dissociation of the cells into a single-cell suspension. The cells are then plated at an appropriate dilution (see below) onto medium lacking histidine as well as standard medium containing histidine. The histidine-lacking medium is used to determine recombination frequency. Standard medium (medium containing histidine) is used to determine the overall toxicity of the test agent.

[2] = system: S. cerevisiae strain RS112; assay: well-based DEL assay (MTS colorimetric, 96/384-well): genotoxicity and cytotoxicity
Description: The RS112 yeast DEL assay tester strain of Saccharomyces cerevisiae contains a plasmid with an internal fragment of the HIS3 gene integrated at the genomic HIS3 locus, yielding an integrative disruption of the HIS3 gene. This disruption results in two copies of the HIS3 gene, each copy having one terminal deletion. Recombination between the two his3 deletion alleles results in reversion to HIS3^+ and growth in the absence of histidine. This recombination event leads to a 6 kb DNA deletion comprising the integrated plasmid leading to deletion (DEL) events. The assay utilizing DEL events involves overnight growth of a single colony of the RS112 strain and subsequent subculture with the presence or absence of the chemical being tested for 17 hours at 30° C. under constant shaking. Yeast are then plated onto SC medium to determine the number of survivors (individual colonies are counted) and onto SC-HIS medium to score for DEL events. The traditional DEL assay is very powerful if one is testing a limited number of chemicals but becomes impractical for screening large numbers of chemicals and chemical libraries.
For 384-well plate format, 1 μl of yeast (˜100,000 cells) was pipetted into 8 microplate wells for each compound, four of which containing 70 μl SC media and four containing 70 μl SC-HIS media; each well was supplemented with 14 μl of MTS and 5 μl of compound. For 96-well plate format, the above was consistent except media, MTS, and compound volumes were 100 μl, 20 μl, and 7 μl, respectively. Control wells were treated with water in lieu of compound. The outermost columns of the 96-well plate and outer two columns of each 384-well plate were excluded from experimentation lest edge evaporative effects alter the data. Plates were incubated at 30° C. at normal atmosphere during which yeast were grown in the presence of the tested compound and 490 nm absorbance was measured 10-18 hr later using a Molecular Devices SpectraMax M5 microplate reader (Sunnyvale, Calif.).
Survival for a given compound treatment was quantified by averaging the absorbance across the four treated wells in SC media and dividing that by the average absorbance of control wells. DEL induction was quantified by dividing the absorbance of each SC-HIS well by the corresponding paired SC well. Thus for each compound done in quadruplicate, each plate contains a set of 4 different measurements of DEL induction. For each compound, ratio of the average DEL induction in treated versus control cultures was taken as the fold-increase in DEL events (HIS^+ growth). A Student's t-test was performed on the 4 measurements of DEL induction and the same measurements recorded from control wells to determine significance of the fold-increase. It should be noted that this value of fold-increase is analyzed statistically for significance and not absolute; thus two different chemicals may have the same fold-increase but varying levels of significance. In plots and tables, data from a single experiment performed in quadruplicate is presented; all experiments were repeated independently in at least 3 separate experiments in both 96 and 384-well plate formats.

Saccharomyces cerevisiae [3] = conditions: cited from earlier work; for induction of DNA deletions: previous experiments
Saccharomyces cerevisiae [4] = conditions: Angeli's salt as HNO donor; cited from earlier work

Row | SMILES | Cytotoxicity (% survival) ([2]; 0.2 mM final in well) | DEL (fold increase) ([2]; 0.2 mM final in well) | DEL significance ([2]; 0.2 mM final in well) | Cytotoxicity (% survival) ([2]; 0.7 mM final in well) | Cytotoxicity significance ([2]; 0.7 mM final in well) | DEL (fold increase) ([2]; 0.7 mM final in well) | DEL significance ([2]; 0.7 mM final in well) | Cytotoxicity (% survival) ([2]; 1.4 mM final in well) | Cytotoxicity significance ([2]; 1.4 mM final in well) | DEL (fold increase) ([2]; 1.4 mM final in well) | DEL significance ([2]; 1.4 mM final in well) | induction of DNA deletions (Saccharomyces cerevisiae [3]) | further results
1 | [Cl][Cr]([Cl])[Cl] [Cr (3), CrCl3] | 110.1% | 0.93 fold | ns (ns—not significant (p > 0.05)) | 85.8% | ** (** (p < 0.01)) | 0.98 fold | ns (ns—not significant (p > 0.05)) | 36.8% | *** (*** (p < 0.005)) | 1.44 fold | *** (*** (p < 0.005)) | induced DNA deletions | increase above background (Saccharomyces cerevisiae [1]): approximately 13.6 cells; DEL recombination ([2]; 1.4 mM (~222 μg/ml)): significant increase in DEL recombination; genotoxic events ([2]; 0.2 (~32 μg/ml) or 0.7 mM (~111 μg/ml)): did not induce any genotoxic events; lowest detectable concentration (significant genotoxicity) ([2]; well-based format): 1.4 mM; DEL events per 100,000 cells (Saccharomyces cerevisiae [3]; 1.4 mM (~222 μg/ml), plate-based assay, previously observed): 33.6 DEL events per 100,000 cells; lowest dose which induced significant genotoxicity (Saccharomyces cerevisiae [3]; traditional agar plate version): 0.7 mM
2 | [K+].[K+].[O]=[Cr](=[O])([O-])[O][Cr](=[O])(=[O])[O-] [Cr (6), K2Cr2O7] | 32.1% | 2.13 fold | *** (*** (p < 0.005)) | 9.91% | *** (*** (p < 0.005)) | 3.78 fold | *** (*** (p < 0.005)) | 10.8% | *** (*** (p < 0.005)) | 3.12 fold | *** (*** (p < 0.005)) | induced DNA deletions | Cytotoxicity significance ([2]; 0.2 mM final in well): *** (*** (p < 0.005)); induction of the DEL assay ([2]; between 0.2 and 1.4 mM (~20-140 μg/ml)): very potent induction of the DEL assay; survival ([2]; with increased dose between 0.2 and 1.4 mM (~20-140 μg/ml)): severely decreased survival
3 | N=O [HNO] | – | – | – | – | – | – | – | – | – | – | – | – | induction of point mutations (Saccharomyces cerevisiae [4]): negative; induction of DNA deletions and recombination (Saccharomyces cerevisiae [3]; Angeli's salt as HNO donor): potent inducer of DNA deletions and recombination; genotoxicity (Saccharomyces cerevisiae [3]; under aerobic and anaerobic conditions): observed
